We go through 18 compounds from patent publication US11285156B2, “Substituted piperazines as KRAS G12C inhibitors” (Amgen Inc., priority 2018, dated 2022).

The test system of assay [1] is Phosphorylation of ERK1/2 in MIA PaCa-2 cells. The assay is described as follows: Phospho-ERK1/2 MSD assay in MIA PaCa-2 cells. It is filed as cell-based. To be noted: read-out: p-ERK IC50 (2 h, MiaPaCa-2; μM), 2 h compound treatment, MIA PaCa-2 cells, EGF stimulated. On the procedure:
(§1) Phospho-ERK1/2 MSD Assay:
(§2) Sixteen hours prior to compound treatment, MIA PaCa-2 or A549 cells were seeded in 96-well cell culture plates at a density of 25,000 cells/well and incubated at 37° C., 5% CO2. A compound dose-response titration was diluted in growth media, added to appropriate wells of a cell culture plate, and then incubated at 37° C., 5% CO2 for 2 or 4 hours (see Table 15). Following compound treatment, cells were stimulated with 10 ng/mL EGF (Roche 11376454001) for 10 min, washed with ice-cold Dulbecco's phosphate-buffered saline, no Ca2+ or Mg2+ (ThermoFisher Scientific 14190144), and then lysed in RIPA buffer (50 mM Tris-HCl pH 7.5, 1% Igepal, 0.5% sodium deoxycholate, 150 mM NaCl. and 0.5% sodium dodecyl sulfate) containing protease inhibitors (Roche 4693132001) and phosphatase inhibitors (Roche 4906837001). Phosphorylation of ERK1/2 in compound-treated lysates was assayed using Phospho-ERK1/2 Whole Cell Lysate kits (Meso Scale Discovery K151DWD) according to the manufacturer's protocol.

Assay [2] deals with Phosphorylation of ERK1/2 in A549 cells. As to the kind of experiment: Phospho-ERK1/2 MSD assay in A549 cells. As to conditions: Homo sapiens, A549, 2 h, read-out: p-ERK IC50 (2 h, A549; μM). In kind it is cell-based. On the procedure:
as §1
as §2, with “MIA PaCa-2 (ATCC® CRL-1420™) and A549 (ATCC® CCL-185™) cells were cultured in RPMI 1640 Medium (ThermoFisher Scientific 11875093) containing 10% fetal bovine serum (ThermoFisher Scientific 16000044) and 1× penicillin-streptomycin-glutamine (ThermoFisher Scientific 10378016). Sixteen” for “Sixteen”

Assay [3] addresses GDP-bound KRAS protein (aa 1-169), containing both G12C and C118A amino acid substitutions (Homo sapiens (Human), UniProt P01116, C118A/G12C). The assay is described as follows: Coupled nucleotide exchange assay (SOS-mediated nucleotide exchange, AlphaScreen). It is filed as biochemical. To be noted: 5 min compound pre-incubation; for IC50: read-out: Coupled exchange IC50 (5 min; μM). (In Alpha technology, singlet oxygen from a donor bead excites a nearby acceptor bead.)

[4] abbreviates: 2 h compound treatment, A549 cells, EGF stimulated.

Molecules are shown by their SMILES. Where two headings read alike, the source gives them in different places.

Sequence of GDP-bound KRAS protein (aa 1-169), containing both G12C and C118A amino acid substitutions (P01116 other isoform, or with tags, fused parts or gaps G12C/C118A): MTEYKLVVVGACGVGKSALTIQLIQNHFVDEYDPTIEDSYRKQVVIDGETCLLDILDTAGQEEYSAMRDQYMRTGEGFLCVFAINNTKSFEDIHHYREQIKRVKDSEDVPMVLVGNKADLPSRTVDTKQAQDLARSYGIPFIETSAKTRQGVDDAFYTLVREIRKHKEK

`C=CC(=O)N1C[C@H](C)N(c2nc(=O)n(-c3c(C)ccnc3C(C)C)c3nc(-c4cscc4C)c(Cl)cc23)C[C@H]1C` (atropisomer, axis not shown; (M)) [Example 92-5, (M)-6-Chloro-4-[(2S,5R)-2,5-dimethyl-4-prop-2-enoyl-piperazin-1-yl]-1-(2-isopropyl-4-methyl-3-pyridyl)-7-(4-methyl-3-thienyl)pyrido[2,3-d]pyrimidin-2-one]: the IC50 in assay [1] (Homo sapiens, MIA PaCa-2, 2 h) was 0.119 µM; in assay [2] (setting [4]) it was over 7.5 µM.

`C=CC(=O)N1C[C@H](C)N(c2nc(=O)n(-c3c(C)ccnc3C(C)C)c3nc(C4=CCCCC4)c(Cl)cc23)C[C@H]1C` (atropisomer, axis not shown; (M)) [Example 92-6, (M)-6-Chloro-7-(cyclohexen-1-yl)-4-[(2S,5R)-2,5-dimethyl-4-prop-2-enoyl-piperazin-1-yl]-1-(2-isopropyl-4-methyl-3-pyridyl)pyrido [2,3-d]pyrimidin-2-one]: the IC50 is 0.237 µM in assay [1] (Homo sapiens, MIA PaCa-2, 2 h) and over 7.5 µM in assay [2] (setting [4]).

For the compound `C=CC(=O)N1[C@H](C)CN(c2nc(=O)n(-c3c(C)cc(N)nc3C(C)C)c3nc(-c4c(N)cccc4F)c(F)cc23)C[C@@H]1C` (single isomer, unassigned) [Example 123-5], the IC50 in assay [1] came to 10 µM; in assay [3] it was 7.53 µM.

As for `C=CC(=O)N1C[C@H](C)N(c2nc(=O)n3c4nc(c(Cl)cc24)-c2ccccc2C/C=C/Cc2cccc(C(C)C)c2-3)C[C@H]1C` (single isomer, unassigned) [Example 146-2-1], the IC50 in assay [1] was 0.024 µM; in assay [3], 0.025 µM.

Regarding `C=CC(=O)N1C[C@H](C)N(c2nc(=O)n(-c3c(N(C)C)ccnc3C(C)C)c3nc(-c4c(F)cccc4NC(=O)CC)c(Cl)cc23)C[C@H]1C` [Example 122-2, N-[2-[6-Chloro-1-[4-(dimethylamino)-2-isopropyl-3-pyridyl]-4-[(2S,5R)-2,5-dimethyl-4-prop-2-enoyl-piperazin-1-yl]-2-oxo-pyrido[2,3-d]pyrimidin-7-yl]-3-fluoro-phenyl]propanamide], the IC50 in assay [1] (Homo sapiens, MIA PaCa-2, 2 h) was determined as 1.21 µM; in assay [3], 0.357 µM.

On to `C=CC(=O)N1C[C@H](C)N(c2nc(=O)n(-c3c(C(C)C)cnc(C)c3C)c3nc(-c4ccccc4F)c(Cl)cc23)C[C@H]1C` [Example 179, 4-((2S,5R)-4-Acryloyl-2,5-dimethylpiperazin-1-yl)-6-chloro-7-(2-fluorophenyl)-1-(5-isopropyl-2,3-dimethylpyridin-4-yl)pyrido[2,3-d]pyrimidin-2(1H)-one], for which the IC50 in assay [2] (setting [4]) is over 7.5 µM.

As to `C=CC(=O)N1CCN(c2nc(=O)n(CC(C)(C)O)c3nc(-c4ccccc4F)c(Cl)cc23)CC1` [Example 180, 4-(4-Acryloylpiperazin-1-yl)-6-chloro-7-(2-fluorophenyl)-1-(2-hydroxy-2-methylpropyl)pyrido[2,3-d]pyrimidin-2(1H)-one], the IC50 in assay [1] (Homo sapiens, MIA PaCa-2, 2 h) is 10 µM. Further, the “Coupled exchange IC50 (5 min; μM)” value in assay [3] turned out to be 85.1 µM.

For `C=CC(=O)N1C[C@H](C)N(c2nc(=O)n(-c3c(C)cc(CN(C)C)cc3C(C)C)c3nc(-c4c(N)cccc4F)c(F)cc23)C[C@H]1C` [Example 184, 4-((2S,5R)-4-Acryloyl-2,5-dimethylpiperazin-1-yl)-7-(2-amino-6-fluorophenyl)-1-(4-((dimethylamino)methyl)-2-isopropyl-6-methylphenyl)-6-fluoropyrido[2,3-d]pyrimidin-2(1H)-one], the IC50 in assay [3] was 2.81 µM.

In the case of `C=CC(=O)N1C[C@H](C)N(c2nc(=O)n(-c3c(C)nc(C)nc3C(C)C)c3nc(-c4ccccc4F)c(C)cc23)C[C@H]1C` [Example 195, 4-((2S,5R)-4-Acryloyl-2,5-dimethylpiperazin-1-yl)-7-(2-fluorophenyl)-1-(4-isopropyl-2,6-dimethylpyrimidin-5-yl)-6-methylpyrido[2,3-d]pyrimidin-2(1H)-one], in assay [3], the IC50 is 0.488 µM.

Take `C=CC(=O)N1[C@H](C)CN(c2nc(=O)n(-c3c(C(C)C)cnnc3C(C)C)c3nc(-c4ccccc4F)c(Cl)cc23)C[C@@H]1C` [Example 206-1, 4-(cis-4-Acryloyl-3,5-dimethylpiperazin-1-yl)-6-chloro-1-(3,5-diisopropylpyridazin-4-yl)-7-(2-fluorophenyl)pyrido[2,3-d]pyrimidin-2(1H)-one]: the “Coupled exchange IC50 (5 min; μM)” value in assay [3] was found to be 0.143 µM.

As for `C=CC(=O)N1C[C@H](C)N(c2nc(=O)n(-c3c(C)cc(S(C)(=O)=O)cc3C(C)C)c3nc(-c4ccccc4F)c(Cl)cc23)C[C@H]1C` [Example 215, 4-((2S,5R)-4-Acryloyl-2,5-dimethylpiperazin-1-yl)-6-chloro-7-(2-fluorophenyl)-1-(2-isopropyl-6-methyl-4-(methylsulfonyl)phenyl)pyrido[2,3-d]pyrimidin-2(1H)-one], the IC50 came out at 0.275 µM in assay [1] (Homo sapiens, MIA PaCa-2, 2 h) and 0.076 µM in assay [3].

For the compound `C=CC(=O)N1C[C@H](C)N(C2=NC(=O)CN(CC(C)(C)C)c3nc(-c4ccccc4F)c(Cl)cc32)C[C@H]1C` [Example 217, 5-((2S,5R)-4-Acryloyl-2,5-dimethylpiperazin-1-yl)-7-chloro-8-(2-fluorophenyl)-1-neopentyl-1,2-dihydro-3H-pyrido[2,3-e][1,4]diazepin-3-one], in assay [2], the IC50 is over 7.5 µM.

With `C=CC(=O)N1C[C@H](C)N(C2=NCC(=O)N(c3c(C)ccnc3C(C)C)c3nc(-c4ccccc4F)c(Cl)cc32)C[C@H]1C` [Example 219, 5-((2S,5R)-4-Acryloyl-2,5-dimethylpiperazin-1-yl)-7-chloro-8-(2-fluorophenyl)-1-(2-isopropyl-4-methylpyridin-3-yl)-1,3-dihydro-2H-pyrido[2,3-e][1,4]diazepin-2-one], the half-maximal inhibitory concentration (IC50) in assay [3] worked out at 250 µM.

For `C=CC(=O)N1C[C@H](C)N(C2=NCC(=O)N(CC(C)(C)C)c3nc(-c4ccccc4F)c(Cl)cc32)C[C@H]1C` [Example 220, 5-((2S,5R)-4-Acryloyl-2,5-dimethylpiperazin-1-yl)-7-chloro-8-(2-fluorophenyl)-1-neopentyl-1,3-dihydro-2H-pyrido[2,3-e][1,4]diazepin-2-one], the half-maximal inhibitory concentration (IC50) in assay [3] worked out at 250 µM.

In the case of `C=CC(=O)N1CCN(c2c(C(N)=O)c(=O)n(-c3c(C)ccnc3C(C)C)c3nc(-c4ccccc4F)c(Cl)cc23)CC1` [Example 221, 4-(4-Acryloylpiperazin-1-yl)-6-chloro-7-(2-fluorophenyl)-1-(2-isopropyl-4-methylpyridin-3-yl)-2-oxo-1,2-dihydro-1,8-naphthyridine-3-carboxamide], in assay [3], the IC50 worked out at 1.26 µM.

`C=CC(=O)N1[C@H](C)CN(c2nc(=O)n(-c3c(C)ccnc3C(C)C)c3nc(-c4ccccc4F)c(Cl)nc23)C[C@@H]1C` [Example 224, 4-((3R,5S)-4-Acryloyl-3,5-dimethylpiperazin-1-yl)-6-chloro-7-(2-fluorophenyl)-1-(2-isopropyl-4-methylpyridin-3-yl)pteridin-2(1H)-one]: the IC50 in assay [3] came to 7.62 µM.

As for `C=CC(=O)N1CCN(c2nc(=O)n(-c3c(C)ccnc3C(C)C)c3nc(-c4c(C)ccc5c4CC(=O)N5)c(Cl)cc23)[C@@H](C)C1` [Example 228, 4-((S)-4-Acryloyl-2-methylpiperazin-1-yl)-6-chloro-1-(2-isopropyl-4-methylpyridin-3-yl)-7-(5-methyl-2-oxoindolin-4-yl)pyrido[2,3-d]pyrimidin-2(1H)-one], the “Coupled exchange IC50 (5 min; μM)” value in assay [3] was determined as 0.769 µM.

On to `C=CC(=O)N1C[C@H](C)N(c2nc(=O)n(-c3c(C)cc([S+](C)[O-])cc3C(C)C)c3nc(-c4ccccc4F)c(Cl)cc23)C[C@@H]1C` (stereo partly shown) [compound 216], for which the IC50 in assay [3] was 2.01 µM.

What is called IC50 is the point on the concentration scale where inhibition reaches its midpoint.
